The values that follow come from US20100216875A1, “METHODS OF TREATING ALZHEIMER'S DISEASE” (priority 2006, published 2010).

One test concerns APPswe/In mice. The test can be described thus: Morris water maze test in APPswe/In mice. Format: in vivo, mouse. The conditions noted are these: Mean + % SEM; for Latency Period: same treatment as APPIn mice. The method, then:
Cathepsin B inhibitors were also evaluated in another transgenic mouse that expressed human APP containing both the Swedish mutant β-secretase and the London γ-secretase site (APPswe/In).
The status of memory impairment in the APPIn or APPswe/In mice with and without administration of select compounds was assessed by the Morris water maze test. The water maze test is widely used in mouse AD animal models to evaluate cognitive impairment in such AD models. Water maze tests were conducted as previously described (87-89).
Drug-treated and vehicle-treated mice were tested in the Morris water maze test. Mice were trained in a 1.2 meter open field water maze. The pool was filled to a depth of 30 cm with water and maintained at 25° C. The escape platform (10 cm square) was placed 1 cm below the surface of the water. During the trials, the platform was removed from the pool. The cued test was carried out in the pool surrounded with white curtains to hide any extra-maze cues. Aβ animals underwent non-spatial pretraining (NSP) for three consecutive days. These trials were to prepare the animals for the final behavioral test to determine whether there was sufficient retention of memory to find the platform. These trials were not recorded since they were for training purposes only. For the training and learning studies, the curtains were removed to extra maze cues to allow identification of animals with swimming impairments. On day 1, the mice were placed on the hidden platform for 20 seconds (trial 1), for trials 2-3 animals were released in the water at a distance of 10 cm from the cued-platform or hidden platform (trial 4) and allowed to swim to the platform. On the second day of trails, the hidden platform was moved randomly between the center of the pool and the center of each quadrant. The animals were released into the pool, randomly facing the wall and were allowed 60 seconds to reach the platform (3 trials). In the third trial, animals were given three trials, two with a hidden platform and one with a cued platform. Two days following the NSP, the animals were subjected to final behavioral trials (Morris water maze test). For these trials (3 per animal), the platform was placed in the center of one quadrant of the pool and the animals were released facing the wall in a random fashion. Each animal was allowed to find the platform or swim for 60 seconds (latency period, the time it takes to find the platform). Aβ animals were tested within 4-6 hours of dosing and were randomly selected for testing by an operator blinded to the test group.

Another test addresses aspartyl protease, BACE1 (Homo sapiens, UniProt P56817). The test can be described thus: effect on BACE1. Format: biochemical.
In test [1] the test system is brain and synaptosomal Aβ. Kind of test: guinea pig brain and synaptosome Aβ by ELISA after icv infusion. It is filed as in vivo. The conditions noted are these: icv 0.15 mg/kg/day. An excerpt:
Guinea pig (gp) is a natural, non-transgenic model of human APP processing gpAPP is 98% homologous to human APP, contains the human wild-type β-secretase site, and gpAβ is identical to human Aβ. Brain synaptosome preparations are enriched with neuronal synapses which are the sites at which regulated secretion occurs and are an in vivo measure of regulated secretory secretion CTFβ is an APP fragment that results from p-secretase cleavage of APP and reflects in vivo β-secretase activity. […] E64d was icy administered into gp brains (0.15 mg/kg/day) for 7 or 30 days. […] In FIG. 5b, total synaptosomal Aβ is shown.
CA074Me (0.15 mg/kg/day) was icy infused into gp brains with mini pumps. […] An equal reduction of Aβ40 and Aβ42 is consistent with the inhibitor affecting p-secretase activity
At the end of the treatment, the brains were isolated and extracted with guanidine hydrochloride and Aβ40 and Aβ42 levels were determined using ELISA.
Cathepsin B inhibitors were administered directly into the brain by icy infusion with minipumps in time course studies at different doses. Guinea pigs were infused with compounds using Alzet pumps (2.5 μl/hr, with compounds at 1 mg/ml in saline) for 7 and 30 days, and other times. This initial dose of compound was selected because E64d and CA074Me are effective at this dose. Each treatment group consisted of eight to ten guinea pigs, including the vehicle control group.
At the end of each experiment, animals were sacrificed and half the brain was taken for ELISA measurement of Aβ40 and Aβ42 levels. The other half was isolated for synaptosome preparations for ELISA measurement of Aβ40 and Aβ42 content in nerve terminals. Synaptosomes were prepared by homogenization in isotonic sucrose (320 mM), pH 7.4, 1 mM EDTA, 0.25 mM dithiothreitol, and 30 U/MI RNAse inhibitor. The homogenate was centrifuged at 1000×g for 10 minutes. The supernatant was loaded on a Sucrose-Percoll discontinuous gradient and centrifuged at 32,000×g for 5 minutes (80) Enriched synaptosomes were washed in PBS, and centrifuged at 12,000×g for 4 minutes. The supernatant was removed, and the synaptosome containing pellet was resuspended in 50% OptiPrep (Accurate Chemica. Westbury, N.Y.), loaded on an OptiPrep discontinuous flotation gradient (9, 12.5, 25, and 35%) and centrifuged at 10,000×g for 20 minutes. The synaptosomes were obtained at the […]
For quantitative analysis of Aβ peptides, an enzyme-linked immunosorbent assay (ELISA) was used to measure the levels of total Aβ, Aβtotal, Aβ40 and Aβ42 in the brains and synaptosomes of guinea pigs (Biosource International, Camarillo, Calif.) Aβtotal, Aβ40, Aβ42 was extracted from guinea pig brains or from synaptosomes by guanidine hydrochloride and quantified as described by the manufacturer. This assay extracted the total Aβ peptide from the brain (both soluble and aggregated). Tissue samples were homogenized in 5M guanidine buffer (5M guanidine HCl in 50 mM Tris-Cl, pH 8.3; Sigma-Aldrich, St. Louis, Mo.) at 1:10 w/v dilution. Homogenates were agitated at room temperature for 3-4 hours, then stored at −20° C. The day before running the ELISA, the tissue samples were diluted further 1:10 to provide a final guanidine concentration of 0.5M. These diluted homogenates were spun down at 14,000 rpm for 20 minutes at 4° C. and supernatants used for Aβ determination by ELISA (84-86). Brain and synaptosome extracts were assayed as diluted in 0.5M guanidine. In addition, Aβ40 and Aβ42 were assayed using ELISA using 6E10 as the capture antibody and Rb209 and Rb321 as reporter antibodies, respectively, for Aβ40 and Aβ42 (96).
For orientation: In an ELISA, binding on a coated surface is turned into a signal by an enzyme label.

Sequence of aspartyl protease, BACE1 (P56817 46-501): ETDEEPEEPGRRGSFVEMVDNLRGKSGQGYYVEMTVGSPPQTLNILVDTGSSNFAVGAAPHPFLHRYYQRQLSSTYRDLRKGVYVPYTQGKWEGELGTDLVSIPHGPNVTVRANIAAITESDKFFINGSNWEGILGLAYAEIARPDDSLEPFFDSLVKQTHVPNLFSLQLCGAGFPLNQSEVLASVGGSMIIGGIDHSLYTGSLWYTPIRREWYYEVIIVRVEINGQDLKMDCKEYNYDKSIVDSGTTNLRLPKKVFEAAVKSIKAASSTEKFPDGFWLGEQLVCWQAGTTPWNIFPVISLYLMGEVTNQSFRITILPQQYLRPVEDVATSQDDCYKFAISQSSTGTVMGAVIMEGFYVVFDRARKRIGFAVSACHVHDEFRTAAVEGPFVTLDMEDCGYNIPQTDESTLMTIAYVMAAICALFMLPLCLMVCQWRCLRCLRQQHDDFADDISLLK

Take `CCOC(=O)[C@H]1O[C@@H]1C(=O)N[C@@H](CC(C)C)C(=O)NCCC(C)C` [E64d]: in the test on APPswe/In mice, the “Distance Traveled” value is given as 270 + 12% and the “Latency Period” value is 40 + 10%. In addition, at aspartyl protease, BACE1, the “effect on BACE1” value is “do not affect”. Moreover, in test [1] (7 days), the “reduction of total Aβ in brain extracts” value stood at 30% and the “reduction of total synaptosomal Aβ” value was 27%. Further, in test [1] (30 days), the “reduction of total Aβ in brain extracts” value worked out at 50% and the “reduction of total synaptosomal Aβ” value is on record as 50%. Moreover, the “reduction of brain Aβ” value in test [1] (duration not stated) stood at 50%.

Consider `CCCNC(=O)[C@H]1O[C@@H]1C(=O)N[C@H](C(=O)N1CCC[C@H]1C(=O)OC)[C@@H](C)CC` [CA074Me], for which, in the test with APPswe/In mice, the “Distance Traveled” value is reported as 246 + 13% and the “Latency Period” value was 37 + 12%. The “effect on BACE1” value on aspartyl protease, BACE1 was “do not affect”. Besides, in test [1] (7 days), the “reduction of Aβ40 in brain extracts” value was found to be 50%, the “reduction of Aβ42 in brain extracts” value was 50%, the “reduction of total Aβ in brain extracts” value is on record as 50% and the “reduction of total synaptosomal Aβ” value is 45%. In test [1] (30 days), the “reduction of Aβ40 in brain extracts” value is 50%, the “reduction of Aβ42 in brain extracts” value amounted to 50%, the “reduction of total Aβ in brain extracts” value was 60% and the “reduction of total synaptosomal Aβ” value is 50%. For the same compound, in test [1] (duration not stated), the “reduction of Aβ40 in the brain” value is reported as 50-60% and the “reduction of Aβ42 in the brain” value is on record as 50-60%.
